Source: US8211916B2, “N- and O-substituted 4-[2-(diphenylmethoxy)-ethyl]-1-[(phenyl)methyl]piperidine analogs and methods of treating CNS disorders therewith” (Wayne State University, priority 2000, dated 2012)
Counter-ions that a name gives are not always drawn. Like-named read-outs stand apart in the source and are kept apart here.

How the values were obtained:
rat SERT = biological target: T1, rat SERT (Rattus norvegicus, UniProt P31652); assay: Rat SERT binding, [3H]citalopram, striatal membranes
T1 construct: from tissue; host or cells: rat striatum (membranes)
T1 sequence (P31652 whole entry): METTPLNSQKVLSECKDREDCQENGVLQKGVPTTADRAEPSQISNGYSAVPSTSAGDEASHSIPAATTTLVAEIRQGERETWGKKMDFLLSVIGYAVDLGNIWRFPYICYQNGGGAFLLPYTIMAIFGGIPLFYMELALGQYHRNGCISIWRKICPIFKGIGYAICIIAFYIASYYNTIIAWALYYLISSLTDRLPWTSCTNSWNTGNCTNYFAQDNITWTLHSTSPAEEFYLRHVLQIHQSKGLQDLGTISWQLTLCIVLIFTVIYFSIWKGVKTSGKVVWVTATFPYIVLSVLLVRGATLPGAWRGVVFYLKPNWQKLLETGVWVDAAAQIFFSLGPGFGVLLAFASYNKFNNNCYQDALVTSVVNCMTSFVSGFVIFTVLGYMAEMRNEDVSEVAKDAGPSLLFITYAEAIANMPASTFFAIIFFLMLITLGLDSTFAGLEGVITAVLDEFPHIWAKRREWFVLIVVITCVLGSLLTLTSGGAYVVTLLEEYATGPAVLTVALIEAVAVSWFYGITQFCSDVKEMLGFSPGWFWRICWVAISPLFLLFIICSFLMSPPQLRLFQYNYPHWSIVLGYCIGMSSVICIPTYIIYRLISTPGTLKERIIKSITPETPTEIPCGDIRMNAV
Description: (§1) Briefly, rat striatal membranes were incubated with radioligand and inhibitor for 2 h on ice in a sodium phosphate buffer at a final Na^+ concentration of 30 nM, pH 7.4, at room temperature. The assays were terminated by filtration through glass fiber filtermats (Wallac, Inc., Gaithersburg, Md.), presoaked in 0.05% (v/v) polyethyleneimine, with a MACH3-96 Tomtec harvester (Wallac, Inc.). Filters were assayed for radioactivity in a Microbeta Plus liquid scintillation counter (Wallac, Inc.).

[1] = biological target: T2, Norepinephrine (NET) Transporter (Rattus norvegicus, UniProt Q63380); assay: NET binding, [3H]nisoxetine
T2 construct: and norepinephrine Transporters in Rat Striatum; from tissue
T2 sequence (Q63380 1-617): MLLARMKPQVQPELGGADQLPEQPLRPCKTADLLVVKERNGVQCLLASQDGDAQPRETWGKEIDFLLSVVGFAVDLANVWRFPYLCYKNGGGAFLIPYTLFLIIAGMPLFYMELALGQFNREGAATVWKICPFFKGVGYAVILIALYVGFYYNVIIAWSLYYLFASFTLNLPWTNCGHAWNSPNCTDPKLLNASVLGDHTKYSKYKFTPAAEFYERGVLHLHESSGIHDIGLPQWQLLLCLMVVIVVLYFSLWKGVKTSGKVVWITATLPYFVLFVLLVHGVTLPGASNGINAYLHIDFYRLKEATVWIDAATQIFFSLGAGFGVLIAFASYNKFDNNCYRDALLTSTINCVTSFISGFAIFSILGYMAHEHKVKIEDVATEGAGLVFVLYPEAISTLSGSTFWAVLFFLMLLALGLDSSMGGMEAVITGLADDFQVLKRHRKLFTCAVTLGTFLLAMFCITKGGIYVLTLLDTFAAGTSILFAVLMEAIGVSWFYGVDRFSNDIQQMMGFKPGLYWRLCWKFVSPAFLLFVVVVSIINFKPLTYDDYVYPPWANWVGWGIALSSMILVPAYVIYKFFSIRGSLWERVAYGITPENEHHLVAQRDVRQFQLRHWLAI

rat DAT = rat DAT (Rattus norvegicus, UniProt P23977); assay: Rat DAT binding, [3H]Win 35,428, striatal membranes
Chain of rat DAT (P23977 whole entry): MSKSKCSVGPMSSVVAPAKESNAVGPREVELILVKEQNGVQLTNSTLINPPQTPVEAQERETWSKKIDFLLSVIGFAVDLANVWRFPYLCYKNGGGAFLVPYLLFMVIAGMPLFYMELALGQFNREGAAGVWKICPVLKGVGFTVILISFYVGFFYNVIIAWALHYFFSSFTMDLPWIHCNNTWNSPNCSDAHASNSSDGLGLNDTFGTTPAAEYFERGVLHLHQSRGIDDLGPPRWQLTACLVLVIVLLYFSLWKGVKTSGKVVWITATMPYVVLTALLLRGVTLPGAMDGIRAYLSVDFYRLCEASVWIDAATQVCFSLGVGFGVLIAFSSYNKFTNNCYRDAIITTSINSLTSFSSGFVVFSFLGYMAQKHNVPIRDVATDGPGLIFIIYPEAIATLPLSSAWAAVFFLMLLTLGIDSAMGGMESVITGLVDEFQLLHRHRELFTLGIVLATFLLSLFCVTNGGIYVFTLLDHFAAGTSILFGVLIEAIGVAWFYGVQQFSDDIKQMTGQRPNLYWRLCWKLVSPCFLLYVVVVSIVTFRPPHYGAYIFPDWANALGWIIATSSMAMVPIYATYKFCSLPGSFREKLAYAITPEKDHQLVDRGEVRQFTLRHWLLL
Description: as §1

DAT = biological target: T3, DAT (Rattus norvegicus, UniProt P23977); assay: Uptake of [3H]DA by DAT, rat striatum; format: biochemical; conditions: for Ki: [3H]DA uptake, rat striatum
T3 construct: from tissue; host or cells: rat striatum
T3 sequence (P23977 whole entry): as above
From the text: Transporter assays. The affinity of test compounds in binding to rat DAT and in inhibiting monoamine uptake was monitored as described by us previously. […] Rat cerebral cortex was used for assessing uptake of [^3H]serotonin by SERT and hippocampus for uptake of [^3H]NE by NET. […] At lease five triplicate concentrations of each test compound were studied, spaced evenly around the IC50 value. The latter was estimated by nonlinear computer curve-fitting procedures and converted to Ki with the Cheng-Prusoff equation.

[2] = read-out: Ki (DAT), inhibition of DA uptake
[3] = Ki (DAT), inhibition of DA uptake

Oc1cccc(CN2CCC(CCOC(c3ccccc3)c3ccccc3)CC2)c1 [Example 3-OH, 4-[2-(diphenylmethoxy)ethyl]-1-[(3-hydroxyphenyl)methyl]piperidine]
IC50 (rat SERT; Table 1, read-out: SERT, IC50): 984 ± 94 nM
IC50 ([1]; Table 1, read-out: NET, IC50): 678 ± 13 nM
IC50 (rat DAT; read-out: DAT, IC50, Table 1): 14.3 ± 3.7 nM

CCC(=O)OC1CN(Cc2ccc(F)cc2)CCC1CCOC(c1ccccc1)c1ccccc1 (racemic) [Example 17]
IC50 (rat SERT; Table 5, rat striatum, read-out: SERT, IC50, nM [3H]citalopram): 178 nM
IC50 [1]: 35800 nM
IC50 (rat DAT): 583 ± 81 nM

FC(F)(F)c1ccc(CN2CCC(CCOC(c3ccccc3)c3ccccc3)CC2)cc1 [Example 3, 4-[2-(Diphenylmethoxy)ethyl]-1-[((4-trifluoromethyl)phenyl)methyl]piperidine]
IC50 (rat SERT; Table 1, read-out: SERT, IC50): 2260 ± 144 nM
IC50 (rat DAT; read-out: DAT, IC50): 32.1 ± 2.1 nM

O[C@@H](CN[C@H]1CC[C@@H](C(c2ccccc2)c2ccccc2)NC1)Cc1ccccc1 [Example 4c, (R)-1-[(3S,6S)-6-benzhydrylpiperidin-3-ylamino)-3-phenylpropan-2-ol]
Ki (DAT; [2]): 25 nM

CN(CCC1CCN(Cc2ccccc2)CC1)C(c1ccccc1)c1ccccc1 [Example 10, 4-[2-((Diphenylmethyl)-N-methylamino)ethyl]-1-(4-phenylmethyl)piperidine]
IC50 (rat SERT; Table 1, read-out: SERT, IC50): 1660 ± 469 nM
IC50 (rat DAT; read-out: DAT, IC50, Table 1): 213 ± 3 nM

1-((5S,8S)-8-benzhydryl-1,4-diazabicyclo[3.3.1]nonane-2-yl)-3-phenylpropan-2-ol [Example 6a]
Ki (DAT; [2]): 82.9 nM

Fc1cccc(CN2CCC(CCOC(c3ccccc3)c3ccccc3)CC2)c1 (as salt: oxalate) [Example 1, 4-[2-(Diphenylmethoxy)ethyl]-1-[(3-fluorophenyl)methyl]piperidine]
melting point: 150 to 151 °C

CS(=O)(=O)Nc1ccc(CN2CCC(CCOC(c3ccccc3)c3ccccc3)CC2)cc1 (as salt: oxalate) [Example 6, 4-[2-(Diphenylmethoxy)ethyl]-1-[((4-methylsulfonylamino)phenyl)methyl]piperidine]
melting point: 122 to 124 °C

Fc1ccc(CN2CCC(CCOC(c3ccccc3)c3ccccc3)CC2)cc1F (as salt: oxalate) [Example 2, 4-[2-(Diphenylmethoxy)ethyl]-1-[(3,4-difluorophenyl)methyl]piperidine]
melting point: 158 to 159 °C

OC(CCN1CCN2CC1CCC2C(c1ccccc1)c1ccccc1)c1ccc(F)cc1 (single isomer, unassigned) [Example 11a]
Ki (DAT; [3]): 41.8 nM

Fc1ccc(CN2CCC(CCNC(c3ccccc3)c3ccccc3)CC2)cc1F (as salt: HCl) [Example 8, 4-[2-((Diphenylmethyl)amino)ethyl]-1-[(3,4-difluorophenyl)methyl]piperidine]
melting point: 280 to 281 °C

OC(CCN1CCN2CC1CCC2C(c1ccccc1)c1ccccc1)c1ccc(F)cc1 (single isomer, unassigned) [Example 11b]
Ki (DAT; [3]): 8.63 nM
NET/DAT (DAT; uptake inhibition selectivity, norepinephrine vs dopamine): 48.4
SERT/DAT (DAT; uptake inhibition selectivity, serotonin vs dopamine): 172

OC1CN(Cc2ccc(F)cc2)CCC1CCOC(c1ccccc1)c1ccccc1 (racemic) (as salt: oxalate) [Example 16, racemic trans-3-hydroxy-4-[2-diphenylmethoxy)ethyl]-1-[(4-fluorophenyl)methyl]piperidine]
melting point: 143 to 150 °C

N#Cc1ccc(CN2CCC(CCOC(c3ccccc3)c3ccccc3)CC2)cc1 (as salt: oxalate) [Example 4, 4-[2-(Diphenylmethoxy)ethyl]-1-[(4-cyanophenyl)methyl]piperidine]
melting point: 120 to 121 °C

Fc1ccc(C(NCC2CCN(CCc3ccccc3)CC2)c2ccc(F)cc2)cc1 (as salt: HCl) [Example 12, 4-[(Bis(4-fluorophenyl)methylamino)methyl]-1-[2-(phenyl)ethyl]piperidine]
melting point: 214 to 215 °C

CC(NCCC1CCN(Cc2ccc(F)cc2)CC1)c1ccccc1 (centres unmarked) [Example 14, 4[2-[(1-(phenyl)ethyl)amino]ethyl]-1-[(4-fluorophenyl)methyl]piperidine]
IC50 (rat SERT; Table 1, read-out: SERT, IC50): 963 ± 38.5 nM
IC50 (rat DAT; read-out: DAT, IC50, Table 1): 295 ± 40.9 nM

Fc1cccc(CN2CCC(CCOC(c3ccccc3)c3ccccc3)CC2)c1 [Example 1, 4-[2-(Diphenylmethoxy)ethyl]-1-[(3-fluorophenyl)methyl]piperidine]
IC50 (rat SERT; Table 1, read-out: SERT, IC50): 1150 ± 43.4 nM
IC50 (rat DAT; read-out: DAT, IC50, Table 1): 23.4 ± 3.8 nM

O=C1CN(Cc2ccc(F)cc2)CCC1CCOC(c1ccccc1)c1ccccc1 (racemic) (as salt: oxalate) (hydrate or solvate) [Example 18, racemic 3-Keto-4-[2-(diphenylmethoxy)ethyl]-1-[(4-fluorophenyl)methyl]piperidine]
melting point: 104 to 109 °C

Ic1ccc(CN2CCC(CCOC(c3ccccc3)c3ccccc3)CC2)cc1 (as salt: oxalate) [Example 19, 4-[2-(diphenylmethoxy)ethyl]-1-[(4-iodophenyl)methyl]piperidine]
melting point: 160 to 161 °C

CC(OCCC1CCN(Cc2ccc(F)cc2)CC1)c1ccccc1 (centres unmarked) [4-[((1-phenylethoxy)ethyl]-1-[(4-fluorophenyl)methyl]piperidine]
IC50 (rat SERT; Table 1, read-out: SERT, IC50): 5860 ± 595 nM
IC50 (rat DAT; read-out: DAT, IC50, Table 1): 751 ± 61.6 nM

OC(CN1CCN2CC1CCC2C(c1ccccc1)c1ccccc1)c1ccc(F)cc1 [Example 7c, (R)-2-((5S,8S)-8-benzhydryl-1,4-diazabicyclo[3.3.1]nonane-2-yl)-1-4-fluorophenyl)ethanol]
Ki (DAT; [3]): 66.5 nM

Fc1ccc(C(NCC2CCN(CCc3ccccc3)CC2)c2ccc(F)cc2)cc1 [Example 12, 4-[(Bis(4-fluorophenyl)methylamino)methyl]-1-[2-(phenyl)ethyl]piperidine]
IC50 (rat SERT; Table 1, read-out: SERT, IC50): 1100 ± 246 nM
IC50 (rat DAT; read-out: DAT, IC50): 65.3 ± 3.2 nM

CN(CC1CCN(Cc2ccc(F)cc2)CC1)CC(c1ccccc1)c1ccccc1 (as salt: oxalate) [Example 13]
melting point: 144 to 145 °C

CC(NCCC1CCN(Cc2ccc(F)cc2)CC1)c1ccccc1 (centres unmarked) (as salt: oxalate) [Example 14, 4[2-[(1-(phenyl)ethyl)amino]ethyl]-1-[(4-fluorophenyl)methyl]piperidine]
melting point: 172 to 173 °C

Fc1ccc(CN2CCC(CNOC(c3ccccc3)c3ccccc3)CC2)cc1 (as salt: oxalate) [Example 7, 4-[((2-Diphenylmethoxy)amino)methyl]-1-[(4-fluorophenyl)methyl]piperidine]
melting point: 154 to 155 °C

1-((5S,8S)-8-benzhydryl-1,4-diazabicyclo[3.3.1]nonane-2-yl)-3-phenylpropan-2-ol [Example 6b]
Ki (DAT; [2]): 16.8 nM

O[C@H](CN[C@H]1CC[C@@H](C(c2ccccc2)c2ccccc2)NC1)Cc1ccccc1 [Example 4d, (S)-1-[(3S,6S)-6-benzhydrylpiperidin-3-ylamino)-3-phenylpropan-2-ol]
Ki (DAT; [2]): 25.3 nM

O=C(Cc1ccccc1)N1CCC(CCOC(c2ccccc2)c2ccccc2)CC1 [Example 5, 4-[2-(Diphenylmethoxy)ethyl]-1-[(phenylmethyl)carbonyl]piperidine]
IC50 (rat SERT; Table 1, read-out: SERT, IC50): > 1000 nM
IC50 (rat DAT; read-out: DAT, IC50): 2160 ± 54 nM

CN(CC1CCN(Cc2ccc(F)cc2)CC1)CC(c1ccccc1)c1ccccc1 [Example 13]
IC50 (rat SERT; Table 1, read-out: SERT, IC50): 2520 ± 230 nM
IC50 (rat DAT; read-out: DAT, IC50, Table 1): 94 ± 12.5 nM

Fc1ccc(CN2CCC(CNCC(c3ccccc3)c3ccccc3)CC2)cc1 (as salt: HCl) [Example 11, 4-[[2-(Diphenyl)ethyl]aminomethyl]-1-[(4-fluorophenyl)methyl]piperidine]
melting point: 126 to 127 °C
